Measured values: publication PMC9964680, “Novel TDP1 Inhibitors: Disubstituted Thiazolidine-2,4-Diones Containing Monoterpene Moieties” (International Journal of Molecular Sciences, 2023)

What was measured:
MRC-5 cells = experiment: Effect of compounds on topotecan cytotoxicity, MRC-5 (EZ4U); format: cell-based, human; conditions: MRC-5, 10 μM compound, topotecan 1 to 10 μM
Procedure: According the EZ4U test data the thiazolidine-2,4-diones were shown not to enhance the cytotoxic effect of topotecan at 10 μM (Figure 2C,D). […] It can be speculated that the decisive factor is the use of the thiazolidine-2,4-dione fragment as a central molecular scaffold, which is a pharmacophore for many targets. In particular, thiazolidine-2,4-diones are well-known for their antidiabetic, antitumor [20], and anti-inflammatory activities. Such promiscuity can lead to binding to a number of proteins/enzymes in cells other than TDP1.
Human colon adenocarcinoma HCT-116 and human lung fibroblast MRC-5 cell lines were provided by the Cell Culture Bank of the State Research Center for Virology and Biotechnology Vector, Novosibirsk, Russia. Cells were cultured in DMEM medium (Invitrogen) supplemented with 10% fetal bovine serum (FBS) (Invitrogen), penicillin (100 units/mL), and streptomycin (100 µg/mL) at 37 °C and 5% CO2 in a humid atmosphere. After the formation of a 30–50% monolayer, the tested compounds were added to the medium. Because the compounds are soluble in DMSO, we minimized the DMSO content in the culture medium. The volume of the added reagents was 1/100 of the total volume of the culture medium, and the amount of DMSO was 1% of the final volume. Control cells were grown in the presence of 1% DMSO. […]

Human recombinant TDP1 = target: T1, Human recombinant TDP1 (Homo sapiens, UniProt Q9NUW8); experiment: Real-time oligonucleotide biosensor assay of TDP1 activity; format: biochemical; conditions: 1.5 nM TDP1, 50 nM biosensor, 26 °C, at least three experiments; read-out: TDP1 inhibitory activity IC50
T1 construct: made in house
Procedure: The inhibiting activity of the compounds against TDP1 was investigated using a real-time oligonucleotide biosensor assay.
The biosensor (5′-[FAM] AAC GTC AGGGTC TTC C [BHQ]-3′) was synthesized in the Laboratory of Nucleic Acid Chemistry at the Institute of Chemical Biology and Fundamental Medicine (Novosibirsk, Russia) and was used for TDP1 enzyme activity real-time fluorescence detection. The reaction mixture (200 µL) contained a TDP1 reaction buffer (50 mM Tris-HCl, pH 8.0, 50 mM NaCl, and 7 mM β-mercaptoethanol), 50 nM oligonucleotide, varied concentrations of the tested compounds, and purified TDP1 in a final concentration of 1.5 nM. The recombinant TDP1 was purified to homogeneity by chromatography on Ni-chelating resin and phosphocellulose P11, as described, using plasmid pET 16B-TDP1, kindly provided by Dr. K.W. Caldecott (University of Sussex, United Kingdom).
The reaction mixtures were incubated at a constant temperature of 26 °C in a POLARstar OPTIMA fluorimeter (BMG LABTECH, GmbH, Ortenberg, Germany). Fluorescence intensity was measured (Ex485/Em520 nm) every 1 min for 10 min. The average values of the half maximal inhibitory concentration (IC50) were determined using a six-point concentration response curve and calculated using MARS Data Analysis 2.0 (BMG LABTECH). The 50% inhibitory concentration (IC50) was defined as the concentration of the compound that inhibited 50% of the enzyme activity, when compared to the untreated controls. At least three independent experiments were carried out to obtain the IC50 values.

T1 sequence (Q9NUW8 whole entry): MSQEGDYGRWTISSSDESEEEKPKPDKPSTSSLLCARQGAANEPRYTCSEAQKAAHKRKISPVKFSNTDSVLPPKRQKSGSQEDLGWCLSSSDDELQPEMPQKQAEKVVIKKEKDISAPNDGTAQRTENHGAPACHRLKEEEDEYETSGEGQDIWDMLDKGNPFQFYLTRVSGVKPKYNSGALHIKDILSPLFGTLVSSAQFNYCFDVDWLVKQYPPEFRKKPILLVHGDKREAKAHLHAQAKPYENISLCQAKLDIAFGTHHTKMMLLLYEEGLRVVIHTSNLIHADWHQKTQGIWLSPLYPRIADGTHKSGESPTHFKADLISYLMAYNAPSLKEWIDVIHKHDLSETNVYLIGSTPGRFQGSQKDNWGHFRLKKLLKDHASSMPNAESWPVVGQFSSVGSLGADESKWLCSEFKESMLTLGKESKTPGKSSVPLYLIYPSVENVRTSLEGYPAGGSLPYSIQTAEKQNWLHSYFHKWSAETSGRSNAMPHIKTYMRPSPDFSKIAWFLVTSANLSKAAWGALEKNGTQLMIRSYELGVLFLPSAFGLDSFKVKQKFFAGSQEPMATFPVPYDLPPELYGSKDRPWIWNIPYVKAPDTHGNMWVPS

CC1(C)[C@H]2CC=C(CCN3C(=O)S/C(=C\c4ccc(Br)s4)C3=O)[C@@H]1C2 [Compound 21b, (Z)-5-((5-bromothiophen-2-yl)methylene)-3-(2-((1R,5S)-6,6-dimethylbicyclo[3.1.1]hept-2-en-2-yl)ethyl)thiazolidine-2,4-dione]
effect on the cytotoxic effect of topotecan (MRC-5 cells): protects MRC-5 cells
IC50 (Human recombinant TDP1): 2.5 ± 0.4 µM
